Test results published in patent US20120208827A1, “BENZIMIDAZOLES AS FATTY ACID SYNTHASE INHIBITORS” (GlaxoSmithKline LLC, priority 2009, published 2012).

target: FAS (Homo sapiens, UniProt P49327); test: FAS assay (Assay #1 residual NADPH detection or Assay #2 CoA detection with thio-reactive coumarin dye); assay type: biochemical; conditions: tested generally according to the assays described (Assay #1 or #2); in at least one experimental run; read-out: pIC50 value (inhibition of FAS) (converted)
Procedure: FAS activity was measured through one of the two following assays.
Inhibition of FAS activity can be measured based on the detection of residual NADPH substrate after the FAS assay is quenched. This assay is run as a 10 μL endpoint assay in 384-well format, where the reaction contains 20 μM malonyl-CoA, 2 μM acetyl-CoA, 30 μM NADPH and 40 nM FAS in 50 mM sodium phosphate, pH 7.0. The assay is run by sequentially dispensing 5 μl of a malonyl-CoA solution, then enzyme solution (containing the acetyl-CoA, and NADPH) into a black, low volume assay plate (Greiner 784076) pre-dispensed with […] compound solutions in DMSO. The reaction is incubated at ambient temperature for 60 minutes, then quenched with 5 μL of a developing solution composed of 90 μM resazurin, 0.3 IU/ml diaphorase in 50 mM sodium phosphate, pH 7.0. The developed reaction is read on a Molecular Devices Analyst or Acquest (or equivalent) plate reader using a 530 nm excitation wavelength filter, a 580 nm emission filter, and 561 nm dichroic filter. The test compounds are prepared in neat DMSO at a concentration of 10 mM. For inhibition curves, compounds are diluted using a three-fold serial dilution and tested at 11 concentrations (e.g. 25 μM-0.42 nM). Curves are analysed using ActivityBase and XLfit, and results are expressed as pIC50 values.
Inhibition of FAS can also be quantified based on the detection of the CoA products with a thio-reactive coumarin dye. This assay is run as a 10 μL endpoint assay in 384-well format, where the reaction contains 20 μM malonyl-CoA, 20 μM acetyl-CoA, 40 μM NADPH and 2 nM FAS in 50 mM sodium phosphate, pH 7.0, and 0.04% Tween-20. The assay is run by adding 5 μL enzyme solution to a black, low volume assay plate (Greiner 784076) pre-dispensed with 100 nl compound solutions in DMSO. After 30 minutes, […] substrate is added, and the reaction incubated at ambient temperature for an additional 60 minutes. The reaction is then quenched with 10 μL of 6M guanidine-HCl containing 50 μM CPM (7-diethylamino-3-(4′-maleimidylphenyl)-4-methylcoumarin (CPM; thio-reactive dye), and incubated for 30 minutes. The plate is read on an Envision (PerkinElmer) or equivalent plate reader using a 380 nm excitation wavelength filter, and a 486 nm emission filter. Data fitting and compound preparations are done as described above.

FAS, sequence (P49327 whole entry): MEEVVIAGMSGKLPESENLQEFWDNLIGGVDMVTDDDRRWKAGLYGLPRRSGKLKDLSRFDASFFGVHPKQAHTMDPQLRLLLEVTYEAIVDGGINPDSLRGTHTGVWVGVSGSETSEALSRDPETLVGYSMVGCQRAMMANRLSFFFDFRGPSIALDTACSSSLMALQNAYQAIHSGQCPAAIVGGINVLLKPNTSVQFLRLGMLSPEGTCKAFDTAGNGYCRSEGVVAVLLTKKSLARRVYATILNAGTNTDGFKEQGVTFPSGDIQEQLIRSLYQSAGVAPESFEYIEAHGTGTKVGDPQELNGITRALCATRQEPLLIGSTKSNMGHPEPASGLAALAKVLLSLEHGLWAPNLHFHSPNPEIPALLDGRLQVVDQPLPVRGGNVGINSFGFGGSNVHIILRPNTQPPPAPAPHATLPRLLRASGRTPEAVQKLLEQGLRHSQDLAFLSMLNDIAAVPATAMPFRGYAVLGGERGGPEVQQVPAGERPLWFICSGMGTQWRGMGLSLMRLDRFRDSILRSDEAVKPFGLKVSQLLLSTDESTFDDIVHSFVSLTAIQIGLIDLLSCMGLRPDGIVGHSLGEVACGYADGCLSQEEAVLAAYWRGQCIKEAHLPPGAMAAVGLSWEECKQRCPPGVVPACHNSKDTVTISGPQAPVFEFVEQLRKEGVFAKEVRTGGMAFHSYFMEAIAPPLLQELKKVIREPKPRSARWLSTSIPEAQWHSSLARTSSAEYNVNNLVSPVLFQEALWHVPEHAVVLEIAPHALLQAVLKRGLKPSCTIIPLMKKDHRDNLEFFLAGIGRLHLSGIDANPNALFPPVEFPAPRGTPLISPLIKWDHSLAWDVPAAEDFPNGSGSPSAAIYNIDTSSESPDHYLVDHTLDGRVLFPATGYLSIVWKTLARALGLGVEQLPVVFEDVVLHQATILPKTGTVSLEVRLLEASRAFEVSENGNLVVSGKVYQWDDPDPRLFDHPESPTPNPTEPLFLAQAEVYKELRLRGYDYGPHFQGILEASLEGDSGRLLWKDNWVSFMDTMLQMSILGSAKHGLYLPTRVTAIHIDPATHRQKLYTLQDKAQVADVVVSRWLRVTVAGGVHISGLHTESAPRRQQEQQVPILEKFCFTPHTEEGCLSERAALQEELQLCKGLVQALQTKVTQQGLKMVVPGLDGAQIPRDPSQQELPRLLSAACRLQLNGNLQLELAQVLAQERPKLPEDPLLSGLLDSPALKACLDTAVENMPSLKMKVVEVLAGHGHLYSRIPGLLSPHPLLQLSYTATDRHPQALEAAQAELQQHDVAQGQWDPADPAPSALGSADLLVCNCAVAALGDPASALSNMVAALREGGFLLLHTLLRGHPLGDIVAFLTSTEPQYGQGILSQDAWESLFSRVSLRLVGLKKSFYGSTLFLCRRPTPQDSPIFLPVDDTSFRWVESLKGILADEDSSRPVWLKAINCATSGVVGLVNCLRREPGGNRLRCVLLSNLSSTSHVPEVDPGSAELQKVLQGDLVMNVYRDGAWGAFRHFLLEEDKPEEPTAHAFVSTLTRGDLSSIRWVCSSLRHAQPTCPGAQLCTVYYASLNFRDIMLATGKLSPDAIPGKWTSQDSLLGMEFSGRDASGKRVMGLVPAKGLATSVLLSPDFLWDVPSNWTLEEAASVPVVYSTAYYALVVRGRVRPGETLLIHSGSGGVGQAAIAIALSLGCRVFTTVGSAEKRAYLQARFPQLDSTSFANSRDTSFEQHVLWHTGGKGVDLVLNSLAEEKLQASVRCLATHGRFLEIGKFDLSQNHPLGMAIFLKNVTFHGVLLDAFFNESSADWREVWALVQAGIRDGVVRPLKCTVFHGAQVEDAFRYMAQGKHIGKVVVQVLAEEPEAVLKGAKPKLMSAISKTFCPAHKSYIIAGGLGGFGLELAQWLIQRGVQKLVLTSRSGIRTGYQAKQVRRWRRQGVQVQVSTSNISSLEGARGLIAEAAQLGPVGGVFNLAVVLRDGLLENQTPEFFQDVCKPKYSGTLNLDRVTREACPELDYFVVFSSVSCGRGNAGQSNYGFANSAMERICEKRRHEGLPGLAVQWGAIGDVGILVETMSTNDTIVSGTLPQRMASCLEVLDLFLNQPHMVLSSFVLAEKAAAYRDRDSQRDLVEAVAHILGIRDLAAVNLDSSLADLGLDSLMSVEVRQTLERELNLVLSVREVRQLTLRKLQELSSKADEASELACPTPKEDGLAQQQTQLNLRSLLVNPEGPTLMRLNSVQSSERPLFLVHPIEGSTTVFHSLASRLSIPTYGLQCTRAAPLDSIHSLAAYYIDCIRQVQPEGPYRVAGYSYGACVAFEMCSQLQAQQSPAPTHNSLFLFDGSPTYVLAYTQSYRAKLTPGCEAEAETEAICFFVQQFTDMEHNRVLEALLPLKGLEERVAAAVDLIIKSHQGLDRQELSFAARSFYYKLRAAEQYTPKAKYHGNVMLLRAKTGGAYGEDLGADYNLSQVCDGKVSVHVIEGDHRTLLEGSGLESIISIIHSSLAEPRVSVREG

| SMILES | IC50 [nM] |
| --- | --- |
| O=C(C1CC1)N1CC[C@@H](Cn2c(-c3ccc(-c4ccc5ncsc5c4)cc3)nc3ccccc32)C1 [Example 4, 6-[4-(1-{[(3S)-1-(Cyclopropylcarbonyl)-3-pyrrolidinyl]methyl}-1H-benzimidazol-2-yl)phenyl]-1,3-benzothiazole] | 55 |
| O=C(C1CC1)N1CC[C@@H](Cn2c(-c3ccc(-c4ccc5cc[nH]c5c4)cc3)nc3c(C(F)(F)F)cccc32)C1 [Example 24, 1-{[(3S)-1-(Cyclopropylcarbonyl)-3-pyrrolidinyl]methyl}-2-[4-(1H-indol-6-yl)phenyl]-4-(trifluoromethyl)-1H-benzimidazole] | 49 |
| O=C(C1CC1)N1CC[C@@H](Cn2c(-c3ccc(-c4ccccc4)cc3)nc3c(Br)cccc32)C1 [Example 33, 2-(4-Biphenylyl)-4-bromo-1-{[(3S)-1-(cyclopropylcarbonyl)-3-pyrrolidinyl]methyl}-1H-benzimidazole] | 135 |
| Cc1ccc2c(c1)nc(-c1ccc(-c3ccc4[nH]ncc4c3)cc1)n2C[C@@H]1CCN(C(=O)C2CC2)C1 [Example 49, 5-[4-(1-{[(3S)-1-(Cyclopropylcarbonyl)-3-pyrrolidinyl]methyl}-5-methyl-1H-benzimidazol-2-yl)phenyl]-1H-indazole] | 26.9 |
| O=C(C1CC1)N1CC[C@@H](Cn2c(-c3ccc(-c4ccc5[nH]ccc5c4)cc3)nc3cc(C(F)(F)F)ccc32)C1 [Example 62, 1-{[(3S)-1-(Cyclopropylcarbonyl)-3-pyrrolidinyl]methyl}-2-[4-(1H-indol-5-yl)phenyl]-5-(trifluoromethyl)-1H-benzimidazole] | 30.9 |
| COc1ccc2nc(-c3ccc(-c4ccc5cc[nH]c5c4)cc3)n(C[C@@H]3CCN(C(=O)C4CC4)C3)c2c1 [Example 66, 1-{[(3S)-1-(Cyclopropylcarbonyl)-3-pyrrolidinyl]methyl}-2-[4-(1H-indol-6-yl)phenyl]-6-(methyloxy)-1H-benzimidazole] | 21.9 |
| Cc1ccc2nc(-c3ccc(-c4ccc5occc5c4)cc3)n(C[C@@H]3CCN(C(=O)C4CC4)C3)c2c1 [Example 83, 2-[4-(1-Benzofuran-5-yl)phenyl]-1-{[(3S)-1-(cyclopropylcarbonyl)-3-pyrrolidinyl]methyl}-6-(methyl)-1H-benzimidazole] | 50.1 |
| O=C(C1CC1)N1CC[C@@H](Cn2c(-c3ccc(-c4ccc5cc[nH]c5c4)cc3)nc3ccc(C(F)(F)F)cc32)C1 [Example 88, 1-{[(3S)-1-(Cyclopropylcarbonyl)-3-pyrrolidinyl]methyl}-2-[4-(1H-indol-6-yl)phenyl]-6-(trifluoromethyl)-1H-benzimidazole] | 43.7 |
| CN1CCN(C(=O)c2ccc3nc(-c4ccc(-c5ccc6cc[nH]c6c5)cc4)n(C[C@@H]4CCN(C(=O)C5CC5)C4)c3c2)CC1 [Example 106, 1-{[(3S)-1-(Cyclopropylcarbonyl)-3-pyrrolidinyl]methyl}-2-[4-(1H-indol-6-yl)phenyl]-6-[(4-methyl-1-piperazinyl)carbonyl]-1H-benzimidazole] | 55 |
| CN1CCN(C(=O)c2ccc3nc(-c4ccc(-c5ccc6[nH]ccc6c5)cc4)n(C[C@@H]4CCN(C(=O)C5CC5)C4)c3c2)CC1 [Example 107, 1-{[(3S)-1-(Cyclopropylcarbonyl)-3-pyrrolidinyl]methyl}-2-[4-(1H-indol-5-yl)phenyl]-6-[(4-methyl-1-piperazinyl)carbonyl]-1H-benzimidazole] | 10 |
| O=C(C1CC1)N1CC[C@@H](Cn2c(-c3ccc(-c4ccc(F)cc4)cc3)nc3cccc(C(F)(F)F)c32)C1 [Example 117, 1-{[(3S)-1-(Cyclopropylcarbonyl)-3-pyrrolidinyl]methyl}-2-(4′-fluoro-4-biphenylyl)-7-(trifluoromethyl)-1H-benzimidazole] | 1450 |
